Results on five compounds are retold here after patent US7645763B2, “8-[3-amino-piperidin-1-yl]-xanthines, their preparation and their use as pharmaceutical composition” (Boehringer Ingelheim Pharma GmbH & Co. KG, priority 2004, dated 2010).

T1 sequence (P27487 whole entry): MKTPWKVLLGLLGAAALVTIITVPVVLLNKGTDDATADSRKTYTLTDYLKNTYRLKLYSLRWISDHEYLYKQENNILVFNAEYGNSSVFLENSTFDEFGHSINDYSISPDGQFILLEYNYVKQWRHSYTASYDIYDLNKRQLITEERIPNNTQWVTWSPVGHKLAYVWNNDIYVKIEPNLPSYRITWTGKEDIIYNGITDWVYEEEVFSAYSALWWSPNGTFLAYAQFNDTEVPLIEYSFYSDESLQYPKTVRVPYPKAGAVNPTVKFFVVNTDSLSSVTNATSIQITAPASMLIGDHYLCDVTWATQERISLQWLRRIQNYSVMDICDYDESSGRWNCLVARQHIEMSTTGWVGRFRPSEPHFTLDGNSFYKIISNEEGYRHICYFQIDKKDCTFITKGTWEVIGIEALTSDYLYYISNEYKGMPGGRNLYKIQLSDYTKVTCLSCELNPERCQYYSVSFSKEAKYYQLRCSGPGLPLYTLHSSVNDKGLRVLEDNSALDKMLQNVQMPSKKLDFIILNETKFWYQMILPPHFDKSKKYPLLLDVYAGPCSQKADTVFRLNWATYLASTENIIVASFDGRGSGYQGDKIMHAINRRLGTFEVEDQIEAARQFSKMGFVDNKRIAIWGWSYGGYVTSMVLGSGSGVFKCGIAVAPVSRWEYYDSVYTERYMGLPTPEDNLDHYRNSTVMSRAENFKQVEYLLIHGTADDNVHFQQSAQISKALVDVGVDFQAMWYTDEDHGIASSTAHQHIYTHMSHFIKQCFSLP

Tested on in one data set: not listed separately
Put plainly: Tolerability in rats after oral administration. Type of data set: in vivo. The settings on record: oral administration of 10 mg/kg.
As to `CC#CCn1c(N2CCC[C@@H](N)C2)nc2c1c(=O)n(Cc1nc(C)c3ccccc3n1)c(=O)n2-c1ccccc1` [Example 1(8), 1-[(4-methyl-quinazolin-2-yl)methyl]-3-phenyl-7-(2-butyn-1-yl)-8-((R)-3-amino-piperidin-1-yl)-xanthine], the “toxic side effects / tolerability” value is on record as “no toxic side effects could be detected”.

Another data set addresses T1, DPP-IV (Homo sapiens, UniProt P27487).
T1 construct: an extract of the human colon carcinoma cell line Caco-2 is used as the DPP IV source; endogenous in cells; host or cells: Caco-2 (human colon carcinoma), differentiated to induce DPP-IV expression; Nonidet-P40 solubilized extract
Put plainly: DPP-IV assay with Caco-2 cell extract as DPP IV source. Type of data set: biochemical. The following applies: extract of human colon carcinoma cell line Caco-2 as DPP IV source; AFC substrate 100 μM; 60 minutes at ambient temperature; 11-point curves; read-out: DPP IV inhibition IC50. The protocol:
The differentiation of the cells in order to induce the DPP-IV expression was carried out in accordance with the description by Reiher et al. in an article entitled “Increased expression of intestinal cell line Caco-2” that appeared in Proc. Natl. Acad. Sci. Vol. 90, pp. 5757-5761 (1993). The cell extract was obtained from cells solubilized in a buffer (10 mM Tris HCl, 0.15 M NaCl, 0.04 t.i.u. aprotinin, 0.5% Nonidet-P40, pH 8.0) by centrifugation at 35,000 g for 30 minutes at 4° C. (to remove cell debris).
The DPP-IV assay was carried out as follows:
50 μl of substrate solution (AFC; AFC is amido-4-trifluoromethylcoumarin), final concentration 100 μM, was placed in black microtitre plates. 20 μl of assay buffer (final concentrations 50 mM Tris HCl pH 7.8, 50 mM NaCl, 1% DMSO) was pipetted therein. The reaction was started by the addition of 30 μl of solubilized Caco-2 protein (final concentration 0.14 μg of protein per well). The test substances under investigation were typically added prediluted to 20 μl, while the volume of assay buffer was then reduced accordingly. The reaction was carried out at ambient temperature, the incubation period was 60 minutes. Then the fluorescence was measured in a Victor 1420 Multilabel Counter, with the excitation wavelength at 405 nm and the emission wavelength at 535 nm. Dummy values (corresponding to 0% activity) were obtained in mixtures with no Caco-2 protein (volume replaced by assay buffer), control values (corresponding to 100% activity) were obtained in mixtures without any added substance. The potency of the test substances in question, expressed as IC50 values, were calculated from dosage/activity curves consisting of 11 measured points in each case.
What is called IC50 is the concentration that gives 50% inhibition. Turning to `CC#CCn1c(N2CCC[C@@H](N)C2)nc2c1c(=O)n(Cc1nc(C)c3ccccc3n1)c(=O)n2C1CC1` [1(1), 1-[(4-methyl-quinazolin-2-yl)methyl]-3-cyclopropyl-7-(2-butyn-1-yl)-8-((R)-3-amino-piperidin-1-yl)-xanthine], the IC50 was 2.7 nM.
Take `CC#CCn1c(N2CCC[C@@H](N)C2)nc2c1c(=O)n(CC(=O)c1cccc(OC)c1)c(=O)n2-c1ccccc1` [1(10), 1-[2-(3-methoxy-phenyl)-2-oxo-ethyl]-3-phenyl-7-(2-butyn-1-yl)-8-((R)-3-amino-piperidin-1-yl)-xanthine]: the IC50 came to 8.1 nM.
Regarding `CC#CCn1c(N2CCC[C@@H](N)C2)nc2c1c(=O)n(Cc1ccc3ncccc3n1)c(=O)n2-c1ccccc1` [1(13), 1-[([1,5]naphthyridin-2-yl)methyl]-3-phenyl-7-(2-butyn-1-yl)-8-((R)-3-amino-piperidin-1-yl)-xanthine], the 50% inhibitory concentration (IC50) came out at 4 nM.
Regarding `CC#CCn1c(N2CCC[C@@H](N)C2)nc2c1c(=O)n(Cc1nc(C)c3ccccc3n1)c(=O)n2-c1ccccc1` [Example 1(8), 1-[(4-methyl-quinazolin-2-yl)methyl]-3-phenyl-7-(2-butyn-1-yl)-8-((R)-3-amino-piperidin-1-yl)-xanthine], the IC50 was determined as 4.9 nM.
With `CC#CCn1c(N2CCC[C@@H](N)C2)nc2c1c(=O)n(CC(=O)c1cccc3oc(=O)n(C)c13)c(=O)n2C1CC1` [Example 1, 1-[2-(3-Methyl-2-oxo-2,3-dihydro-benzoxazol-4-yl)-2-oxo-ethyl]-3-cyclopropyl-7-(2-butyn-1-yl)-8-((R)-3-amino-piperidin-1-yl)-xanthine], the half-maximal inhibitory concentration (IC50) was 3.6 nM.
